Data as given in patent publication US20240173344A1, “USE OF GABAA RECEPTOR AS TARGET IN PREPARATION OR SCREENING OF DRUG FOR LOWERING BLOOD LIPID LEVEL, TREATING OBESITY, AND/OR IMPROVING METABOLISM” (SHANGHAI INSTITUTE OF ENDOCRINE AND METABOLIC DISEASES, priority 2022, published 2024).
Values joined by “and” are separate entries in the source; they are usually repeats but may differ in a detail not shown here. Equal values may be shown once.

Columns and labels:
obese mouse model = assay: Intraperitoneal puerarin derivatives in obese mouse model: body weight, blood lipid, jejunal TG; assay type: in vivo, mice; conditions: for Body weight change percentage, Mean: puerarin derivative-1; for Body weight change percentage: intraperitoneal puerarin derivative-1; for Effect on TG (lipid) absorption in small intestine / Effect on blood lipid level / Effect on body weight of the obese mouse: intraperitoneal injection, result in words; for Blood lipid level / Jejunal TG level: individual obese mice
Source text: (§1) In the present disclosure, the mice were fed with a high-fat diet in which a mass percentage of fat was 60% for 12 weeks, and when a body weight reached 35 g or more, animal models of alimentary obesity were successfully constructed. At a formal stage of the experiment (starting on day 0 in FIG. 1A, FIG. 3A, FIG. 6A, and FIG. 7A), the mice were raised in single cages, during which a daily food intake of each mouse model was accurately recorded, the feces was collected before and after drug intervention, and a daily body weight curve was recorded.
A method for determining TG in a sample was as follows: 20 mg to 30 mg of a sample was first weighed, a 5% NP40-containing lysis buffer was added, and a resulting mixture was homogenated and incubated in a metal bath at 95° C. for 5 min, which was repeated twice. A resulting homogenate was cooled to room temperature and then centrifuged at 15,000 rpm for 2 min to 3 min, and a resulting supernatant was pipetted for determination. A Biovision kit was used to determine TG. 2 μl of the supernatant was added to each well, and after a chromogenic reaction was completed, a value of each well was determined by a microplate reader. TG in the small intestinal tissue was quantified through a standard protein concentration; and a total amount of lipids excreted with the feces was calculated based on a measured value of the feces sample and a total mass of the sample at 24 h.

neurons in the DMV = assay: Chemogenetic (DREADDs) inhibition of DMV neurons by CNO in obese mice: body weight, blood lipid, fecal TG, jejunal TG; assay type: in vivo, C57BL/6J mice; conditions: single mice and mean; for Blood lipid level: Inhibition group (hM4D(Gi) virus + CNO i.p. 7 d)
Source text: as §1
The chemogenetic approach designer receptors exclusively activated by designer drugs (DREADDs) is a research method that controls neuronal excitability in a specific brain region in an animal model, where a downstream signaling pathway of a specific exogenous ligand clozapine N-oxide (CNO) is activated through an adeno-associated virus (AAV) modified by a G protein-coupled receptor (GPCR) to cause a change in neuronal excitability. […]
Four weeks after recovery from surgery, mice in the chemogenetic inhibition group and the control group each were intraperitoneally injected with CNO (Catalog No. BML-NS105, Enzo Life Sciences, USA) at a dose of 1.0 mg/kg BW every day to inhibit the neuronal activity of the DMV, and the daily food intake and body weight were measured and the feces was collected for the mice. The mice were sacrificed after being continuously injected with CNO for 7 d to inhibit the DMV, mouse tissue samples were collected, and physiological and metabolic indexes were detected and analyzed.
A method for determining TG in a sample was as follows: 20 mg to 30 mg of a sample was first weighed, a 5% NP40-containing lysis buffer was added, and a resulting mixture was homogenated and incubated in a metal bath at 95° C. for 5 min, which was repeated twice. […] 2 μl of the supernatant was added to each well, and after a chromogenic reaction was completed, a value of each well was determined by a microplate reader. […]

[1] = group mean of 8 mice, puerarin derivative-3 group
[2] = group mean of 10 mice, puerarin derivative-2 group

## OCC1OC(c2c(O)ccc3c2OC=C(c2ccc(O)cc2)C3O)C(O)C(O)C1O (centres unmarked) [Derivative-1]
Obese mouse model; Day 0, group mean of 10 mice
  Body weight change percentage, Mean: 0.00%
Obese mouse model; Day 0, individual obese mice
  Body weight change percentage: 0.00%
Obese mouse model; Day 1, group mean of 10 mice
  Body weight change percentage, Mean: −1.88%
Obese mouse model; Day 1, individual obese mice
  Body weight change percentage: −0.25% and −2.34% and −2.27% and −3.30% and −2.93% and 0.00% and −2.45% and 0.28% and −2.89% and −2.63%
Obese mouse model; Day 2, group mean of 10 mice
  Body weight change percentage, Mean: −2.10%
Obese mouse model; Day 2, individual obese mice
  Body weight change percentage: −0.74% and −1.86% and −2.56% and −3.79% and −4.32% and −0.26% and −2.20% and 0.00% and −2.62% and −2.63%
Obese mouse model; Day 3, group mean of 10 mice
  Body weight change percentage, Mean: −2.96%
Obese mouse model; Day 3, individual obese mice
  Body weight change percentage: −1.24% and −3.06% and −2.56% and −4.04% and −4.32% and −1.55% and −2.45% and −1.14% and −4.53% and −4.77%
Obese mouse model; Day 4, group mean of 10 mice
  Body weight change percentage, Mean: −3.71%
Obese mouse model; Day 4, individual obese mice
  Body weight change percentage: −0.99% and −3.79% and −3.73% and −6.05% and −4.88% and −3.15% and −3.46% and −2.30% and −4.26% and −4.46%
Obese mouse model; Day 5, group mean of 10 mice
  Body weight change percentage, Mean: −3.61%
Obese mouse model; Day 5, individual obese mice
  Body weight change percentage: −1.74% and −3.55% and −4.33% and −6.05% and −3.48% and −2.08% and −2.95% and −3.79% and −3.70% and −4.46%
Obese mouse model; Day 6, group mean of 10 mice
  Body weight change percentage, Mean: −3.95%
Obese mouse model; Day 6, individual obese mice
  Body weight change percentage: −4.08% and −3.06% and −2.56% and −6.31% and −5.17% and −2.35% and −3.21% and −2.60% and −5.09% and −5.08%
Obese mouse model; Day 7, group mean of 10 mice
  Body weight change percentage, Mean: −4.08%
Obese mouse model; Day 7, individual obese mice
  Body weight change percentage: −3.81% and −2.10% and −5.25% and −6.56% and −6.62% and −2.35% and −2.20% and −3.79% and −4.26% and −3.84%
Obese mouse model
  Effect on TG (lipid) absorption in small intestine: inhibit the TG absorption in small intestine
  Effect on blood lipid level: effectively reduce blood lipid level
  Effect on body weight of the obese mouse: significantly reduce the body weight

## C[N+]1([O-])CCN(C2=Nc3cc(Cl)ccc3Nc3ccccc32)CC1 [CNO, clozapine N-oxide]
Neurons in the DMV
  Blood lipid level: 0.7414 mM and 0.9111 mM and 0.6521 mM and 0.4645 mM and 0.8754 mM and 0.6342 mM and 0.7146 mM
Neurons in the DMV; mean
  Blood lipid level: 0.7169 mM
Neurons in the DMV; Inhibition group (hM4D(Gi) virus in DMV, CNO 1.0 mg/kg BW i.p. daily), Day 0 baseline
  Body weight curve change percentage: 0.00%

## OCC1OC2c3c(ccc4c3OC=C(c3ccc(O)cc3)C4O)OC2C(O)C1O (centres unmarked) [puerarin derivative-3]
Obese mouse model; Day 0, group mean of 8 mice, puerarin derivative-3
  Body weight change curve, Mean: 0.00%
Obese mouse model; Day 0, individual obese mice, puerarin derivative-3
  Body weight change curve: 0.00%
Obese mouse model; Day 1, group mean of 8 mice, puerarin derivative-3
  Body weight change curve, Mean: −2.37%
Obese mouse model; Day 1, individual obese mice, puerarin derivative-3
  Body weight change curve: −3.96% and −2.50% and −1.71% and −2.35% and −2.28% and −0.26% and −2.59% and −3.32%
Obese mouse model; Day 2, group mean of 8 mice, puerarin derivative-3
  Body weight change curve, Mean: −3.16%
Obese mouse model; Day 2, individual obese mice, puerarin derivative-3
  Body weight change curve: −5.57% and −1.65% and −3.77% and −2.65% and −4.06% and −0.80% and −2.88% and −3.90%
Obese mouse model; Day 3, group mean of 8 mice, puerarin derivative-3
  Body weight change curve, Mean: −3.01%
Obese mouse model; Day 3, individual obese mice, puerarin derivative-3
  Body weight change curve: −1.49% and −2.50% and −4.68% and −2.65% and −4.36% and −1.34% and −2.88% and −4.19%
Obese mouse model; Day 4, group mean of 8 mice, puerarin derivative-3
  Body weight change curve, Mean: −3.76%
Obese mouse model; Day 4, individual obese mice, puerarin derivative-3
  Body weight change curve: −2.09% and −3.65% and −6.24% and −2.65% and −3.76% and −1.07% and −4.39% and −6.27%
Obese mouse model; Day 5, group mean of 8 mice, puerarin derivative-3
  Body weight change curve, Mean: −4.10%
Obese mouse model; Day 5, individual obese mice, puerarin derivative-3
  Body weight change curve: −3.02% and −3.65% and −6.24% and −2.65% and −4.06% and −1.88% and −5.00% and −6.27%
Obese mouse model; Day 6, group mean of 8 mice, puerarin derivative-3
  Body weight change curve, Mean: −4.33%
Obese mouse model; Day 6, individual obese mice, puerarin derivative-3
  Body weight change curve: −3.33% and −5.13% and −6.24% and −2.65% and −3.46% and −4.41% and −2.88% and −6.57%
Obese mouse model; Day 7, group mean of 8 mice, puerarin derivative-3
  Body weight change curve, Mean: −5.42%
Obese mouse model; Day 7, individual obese mice, puerarin derivative-3
  Body weight change curve: −5.24% and −6.65% and −7.51% and −3.26% and −3.76% and −4.13% and −5.93% and −6.88%
Obese mouse model; [1]
  Blood lipid level, Mean: 1.2750 mM
  Jejunal TG level, Mean: 1.2900 μmol/mg/protein
Obese mouse model; puerarin derivative-3 group
  Blood lipid level: 1.62 mM and 1.06 mM (2×) and 1.69 mM and 1.23 mM and 1.07 mM and 1.29 mM and 1.18 mM
  Jejunal TG level: 1.29 μmol/mg/protein and 1.48 μmol/mg/protein (2×) and 1.36 μmol/mg/protein and 1.27 μmol/mg/protein and 1.53 μmol/mg/protein and 1.06 μmol/mg/protein and 0.85 μmol/mg/protein
Obese mouse model
  Effect on TG (lipid) absorption in small intestine: inhibiting the small intestinal lipid absorption
  Effect on blood lipid level: reducing blood lipid
  Effect on body weight of the obese mouse: reducing blood lipid and body weight

## Cc1ccc(-c2coc3c(C4OC(CO)C(O)C(O)C4O)c(O)ccc3c2=O)cc1 (centres unmarked) [puerarin derivative-2]
Obese mouse model; Day 0, group mean of 10 mice, puerarin derivative-2
  Body weight change curve, Mean: 0.00%
Obese mouse model; Day 0, individual obese mice, puerarin derivative-2
  Body weight change curve: 0.00%
Obese mouse model; Day 1, group mean of 10 mice, puerarin derivative-2
  Body weight change curve, Mean: −1.67%
Obese mouse model; Day 1, individual obese mice, puerarin derivative-2
  Body weight change curve: −2.39% and −0.56% and −1.13% and −2.22% and 0.90% and −2.19% and −0.28% and −2.70% and −2.55% and −3.57%
Obese mouse model; Day 2, group mean of 10 mice, puerarin derivative-2
  Body weight change curve, Mean: −2.33%
Obese mouse model; Day 2, individual obese mice, puerarin derivative-2
  Body weight change curve: −2.74% and −2.26% and −1.99% and −4.21% and 0.60% and −2.75% and −0.84% and −2.15% and −2.88% and −4.10%
Obese mouse model; Day 3, group mean of 10 mice, puerarin derivative-2
  Body weight change curve, Mean: −2.88%
Obese mouse model; Day 3, individual obese mice, puerarin derivative-2
  Body weight change curve: −2.74% and −3.43% and −3.16% and −4.55% and 0.00% and −2.75% and −1.41% and −3.55% and −2.88% and −4.37%
Obese mouse model; Day 4, group mean of 10 mice, puerarin derivative-2
  Body weight change curve, Mean: −3.46%
Obese mouse model; Day 4, individual obese mice, puerarin derivative-2
  Body weight change curve: −2.74% and −3.73% and −3.16% and −3.87% and −0.91% and −3.89% and −1.13% and −4.40% and −4.21% and −6.57%
Obese mouse model; Day 5, group mean of 10 mice, puerarin derivative-2
  Body weight change curve, Mean: −3.68%
Obese mouse model; Day 5, individual obese mice, puerarin derivative-2
  Body weight change curve: −2.74% and −4.03% and −3.76% and −4.21% and −0.61% and −3.89% and −1.99% and −4.11% and −4.89% and −6.57%
Obese mouse model; Day 6, group mean of 10 mice, puerarin derivative-2
  Body weight change curve, Mean: −3.68%
Obese mouse model; Day 6, individual obese mice, puerarin derivative-2
  Body weight change curve: −2.74% and −4.03% and −3.16% and −3.54% and −0.91% and −4.47% and −4.67% and −3.55% and −2.88% and −6.85%
Obese mouse model; Day 7, group mean of 10 mice, puerarin derivative-2
  Body weight change curve, Mean: −3.98%
Obese mouse model; Day 7, individual obese mice, puerarin derivative-2
  Body weight change curve: −3.45% and −2.26% and −2.57% and −3.87% and −2.15% and −5.66% and −4.37% and −2.43% and −5.93% and −7.13%
Obese mouse model; [2]
  Blood lipid level, Mean: 1.0006 mM
  Jejunal TG level, Mean: 1.3072 μmol/mg/protein
Obese mouse model; puerarin derivative-2 group
  Blood lipid level: 1.0874 mM and 1.0496 mM and 0.6903 mM and 0.8792 mM and 0.6729 mM and 1.3428 mM and 0.9551 mM and 1.1631 mM and 1.1347 mM and 1.0307 mM
  Jejunal TG level: 1.7043 μmol/mg/protein and 1.5325 μmol/mg/protein and 1.5551 μmol/mg/protein and 1.3572 μmol/mg/protein and 1.1252 μmol/mg/protein and 1.1433 μmol/mg/protein and 1.3121 μmol/mg/protein and 1.0924 μmol/mg/protein and 1.2506 μmol/mg/protein and 0.9988 μmol/mg/protein
Obese mouse model
  Effect on TG (lipid) absorption in small intestine: inhibiting the small intestinal lipid absorption
  Effect on blood lipid level: reducing blood lipid
  Effect on body weight of the obese mouse: reducing blood lipid and body weight
